Source: patent publication US4575504A, “Thienothiazole derivatives” (Dr. Karl Thomae GmbH, priority 1982, dated 1986)
Structures can show the parent of a compound that is named as a salt.

Columns and labels:
intact anesthetized rat [1] = experiment: Effect on blood pressure and heart rate in the intact anesthetized rat after intravenous injection; format: in vivo; conditions: 3 mg/kg i.v.
Protocol: 1. Effect on blood pressure and heart rate Method: Changes in circulation after intravenous injection of the test substance were recorded in the intact anesthetized rat. Male rats weighing 200 g were anesthetized with pentobarbital (50 mg/kg i.p.). The animals breathed spontaneously through a tracheal cannula secured in position. The blood pressure was measured at an A. carotis using an electromechanical pressure transducer; the pulse wave triggered a tachograph which recorded the heart rate continuously. Both parameters were recorded on the polygraph. The test substance was injected into a V. jugularis through a catheter. The test substances, when administered at a dosage of 3 mg/kg i.v., produced a brief initial increase in blood pressure followed by a longer-lasting reduction in pressure.

intact anesthetized rat [2] = experiment: as above; format: in vivo; conditions: 1.5 mg/kg i.v.
[3] = tested on: postsynaptic α-adrenoceptors; experiment: Effect on postsynaptic α-adrenoceptors: increase in blood pressure in the spinal rat; format: in vivo; conditions: dosage which increased arterial blood pressure by 30 mmHg, i.v.
Protocol: 3. Effect on postsynaptic α-adrenoceptors: Increase in blood pressure in the spinal rat Method: The increase in blood pressure occurring after the stimulation of postsynaptic α-adrenoreceptors is measured in the spinal rat. Description of test: Male rats weighing from 200 to 250 g were anesthetized (1.2 g/kg of urethane i.p., 1 mg/kg of atropine s.c.). Then the central canal of the spinal cord was opened up. The spinal cord was severed at C1, and the medulla oblongata and the brain were destroyed with a metal probe. The animals were artificially ventilated; a polyethylene catheter was secured in a jugular vein, and the blood pressure was recorded from an A. carotis by means of a Statham element on a Grass polygraph. The dosage (D30) which increased the arterial blood pressure by 30 mmHg was determined.

[4] = Acute toxicity in mice after oral or intravenous administration; conditions: mouse, in vivo, observation period 14 days
Protocol: The acute toxicity was determined in mice after oral or intravenous administration (observation period: 14 days): […]

[5] = tested on: presynaptic α-adrenoceptors; experiment: Effect on presynaptic α-adrenoceptors: inhibition of electrically triggered tachycardia in the spinal rat; format: in vivo; conditions: dosage which inhibits electrically induced tachycardia by 50%, i.v.
From the text: 2. Effect on presynaptic α-adrenoceptors: Inhibition of electrically triggered tachycardia Method: At the adrenergic nerve ending there is an autoregulating system for the relase of noradrenaline. The stimulation of presynaptic α-adrenoreceptors has an inhibiting effect on the release of noradrenaline and thus restricts adrenergic neurotransmission. Accordingly, if these "feedback receptors" are stimulated, the effect of a given adrenergic stimulation on the responding organ can be attenuated. In the electrically stimulated spinal rat, the tachycardia induced electrically in the heart is attenuated by substances with a presynaptic α-mimetic activity. Description of the test: Male rats weighing from 350 to 400 g were anesthetized with pentobarbital (50 mg/kg i.p.), vagotomized, treated with atropine (1 mg/kg s.c.) and fitted with a tracheal cannula. After enucleation of one eye, the orbits were pierced, the brain was destroyed, and a metal rod was pushed through the vertebral canal. The animals were artificially ventilated and pre-treated with gallamine (4 mg/kg i.v.). The metal rod used was 2.5 mm in diameter and was insulated (stove-enamelled). […] The blood pressure was measured at an A. carotis by means of an electromechanical pressure transducer. The pulse wave triggered a tachograph which continuously recorded the heart rate. Both signals were recorded on a multi-channel recorder.

CCN1CCc2c(sc3nc(N)sc23)C1 [E, 6-ethyl-2-amino-5,6,7,8-tetrahydro-thiazolo[4',5':5,4]thieno[2,3c]pyridine dihydrochloride]
Blood pressure, depressor phase (maximum value) (intact anesthetized rat [1]): -29 mm Hg | Blood pressure, pressor phase (maximum value) (intact anesthetized rat [1]): +30 mm Hg | Lowering of heart rate (maximum value) (intact anesthetized rat [1]): -108 beats/minute

Cl.Cl.Nc1nc2sc3c(c2s1)CCNCC3 [H, 2-Amino-6,7,8,9-tetrahydro-5H-thiazolo[4',5':5,4]thieno[2,3-d]azepine dihydrochloride]
Blood pressure, depressor phase (maximum value) (intact anesthetized rat [2]): -34 mm Hg | Blood pressure, pressor phase (maximum value) (intact anesthetized rat [2]): +38 mm Hg | Lowering of heart rate (maximum value) (intact anesthetized rat [2]): -100 beats/minute | Blood pressure-increasing activity, D30 [3]: 0.36 mg/kg i.v.

CCN1CCc2sc3nc(N)sc3c2CC1.Cl.Cl [A, 7-ethyl-2-amino-6,7,8,9-tetrahydro-5H-thiazolo[4',5':5,4]thieno[2,3-d]azepine dihydrochloride]
Blood pressure, depressor phase (maximum value) (intact anesthetized rat [1]): -18 mm Hg | Blood pressure, pressor phase (maximum value) (intact anesthetized rat [1]): +52 mm Hg | Lowering of heart rate (maximum value) (intact anesthetized rat [1]): -90 beats/minute | LD50 at 336 h ([4]; intravenous): 34 mg/kg | LD50 at 336 h ([4]; oral): 320 mg/kg | Blood pressure-increasing activity, D30 [3]: 145 μg/kg i.v. | Inhibition of electrically induced tachycardia, D50 [5]: 290 μg/kg i.v.

CC(C)N1CCc2sc3nc(N)sc3c2CC1.Cl.Cl [Compound D, 2-amino-6,7,8,9-tetrahydro-7-isopropyl-5H-thiazolo[4',5':5,4]thieno[2,3-d]azepine dihydrochloride]
Blood pressure, depressor phase (maximum value) (intact anesthetized rat [1]): -20 mm Hg | Blood pressure, pressor phase (maximum value) (intact anesthetized rat [1]): +23 mm Hg | Lowering of heart rate (maximum value) (intact anesthetized rat [1]): -78 beats/minute

CCCN1CCc2c(sc3nc(N)sc23)C1.Cl.Cl [F, 2-amino-5,6,7,8-tetrahydro-6-propyl-thiazolo[4',5':5,4]thieno[2,3-c]pyridine dihydrochloride]
Blood pressure, depressor phase (maximum value) (intact anesthetized rat [1]): -12 mm Hg | Blood pressure, pressor phase (maximum value) (intact anesthetized rat [1]): +16 mm Hg | Lowering of heart rate (maximum value) (intact anesthetized rat [1]): -65 beats/minute | LD50 at 336 h ([4]; oral): > 300 mg/kg

CN1CCc2c(sc3nc(N)sc23)C1.Cl.Cl [G, 2-amino-5,6,7,8-tetrahydro-6-methyl-thiazolo[4',5':5,4]thieno[2,3-c]pyridine dihydrochloride]
Blood pressure, depressor phase (maximum value) (intact anesthetized rat [1]): -30 mm Hg | Blood pressure, pressor phase (maximum value) (intact anesthetized rat [1]): +46 mm Hg | Lowering of heart rate (maximum value) (intact anesthetized rat [1]): -95 beats/minute

C=CCN1CCc2sc3nc(N)sc3c2CC1.Cl.Cl [C, 7-allyl-2-amino-6,7,8,9-tetrahydro-5H-thiazolo[4',5':5,4]thieno[2,3-d]azepine dihydrochloride]
Blood pressure, depressor phase (maximum value) (intact anesthetized rat [1]): -15 mm Hg | Blood pressure, pressor phase (maximum value) (intact anesthetized rat [1]): +17 mm Hg | Lowering of heart rate (maximum value) (intact anesthetized rat [1]): -150 beats/minute

Nc1nc2sc3c(c2s1)CCN(Cc1ccccc1)CC3 [B, 2-amino-7-benzyl-6,7,8,9-tetrahydro-5H-thiazolo[4',5':5,4]thieno[2,3d]azepine]
Blood pressure, depressor phase (maximum value) (intact anesthetized rat [1]): -25 mm Hg | Lowering of heart rate (maximum value) (intact anesthetized rat [1]): -95 beats/minute
